Assay results published in patent publication US11286268B1, “EIF4E-inhibiting compounds and methods” (EFFECTOR THERAPEUTICS, INC., priority 2019, dated 2022).

Molecular target: recombinant eIF4E (Homo sapiens (Human), UniProt P06730)
Assay: Fluorescence polarization competition assay for eIF4E binding potency
Settings: inhibition of eIF4E/EDA-m7GDP-ATTO-550 binding; calculated IC50 values, Table 4B; read-out: IC50
Method in brief: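 Competitive displacement format: compounds compete with a fluorescent m7GDP tracer (20 nM) for 75 nM recombinant eIF4E. Incubation is 30 min at room temperature, protected from light, with 1% DMSO. Polarization read gives IC50 over eight 3-fold concentrations.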

Chain of recombinant eIF4E (P06730 whole entry): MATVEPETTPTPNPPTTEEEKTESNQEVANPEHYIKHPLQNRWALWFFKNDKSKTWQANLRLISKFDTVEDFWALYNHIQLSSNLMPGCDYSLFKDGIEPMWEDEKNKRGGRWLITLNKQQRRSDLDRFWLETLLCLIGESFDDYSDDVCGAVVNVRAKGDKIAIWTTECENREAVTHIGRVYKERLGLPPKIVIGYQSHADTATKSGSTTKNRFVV

Row | SMILES | IC50 [nM]
1 | Cc1nc2cnc(N(C)C3CCN(C4CC(F)(F)C4)CC3)c(C#N)c2c(=O)n1CC#Cc1ccc(Cl)cc1-c1ccnc2c(C(=O)NS(=O)(=O)C3CC3)csc12 [compound 1809] | 7.57
2 | Cc1nc2cnc(N(C)C3CCN(C4CC(F)(F)C4)CC3)c(C#N)c2c(=O)n1CC#Cc1ccc(Cl)cc1-c1ccnc2c(C(=O)NS(=O)(=O)C(C)(C)C)csc12 [compound 1812] | 18.4
3 | Cc1nc2cnc(N(C)C3CCN(C4CC(F)(F)C4)CC3)c(C#N)c2c(=O)n1CC#Cc1ccc(Cl)cc1-c1ccnc2c(C(=O)NS(=O)(=O)CF)csc12 [compound 1817] | 25.8
4 | Cc1nc2cnc(N(C)C3CCN(C4CC(F)(F)C4)CC3)c(C#N)c2c(=O)n1CC#Cc1ccc(Cl)cc1-c1ccnc2c(C(=O)NS(=O)(=O)C(F)(F)F)csc12 [compound 1818] | 13
5 | Cc1nc2cnc(N(C)C3CCN(C4CC(F)(F)C4)CC3)c(C#N)c2c(=O)n1CC#Cc1ccc(Cl)cc1-c1ccnc2c(C(=O)NS(=O)(=O)CC(F)F)csc12 [compound 1819] | 4.4
6 | Cc1nc2cnc(N(C)C3CCN(C4CC(F)(F)C4)CC3)c(C#N)c2c(=O)n1CC#Cc1ccc(Cl)cc1-c1ccnc2c(C(=O)NS(=O)(=O)CC#N)csc12 [compound 1825] | 17.1
7 | Cc1nc2cnc(N(C)C3CCN(C4CC(F)(F)C4)CC3)c(C#N)c2c(=O)n1CC#Cc1ccc(Cl)cc1-c1ccnc2c(C(=O)NS(=O)(=O)c3ccncc3)csc12 [compound 1829] | 6.27
8 | Cc1nc2cnc(N(C)C3CCN(C4CC(F)(F)C4)CC3)c(C#N)c2c(=O)n1CC#Cc1ccc(Cl)cc1-c1ccnc2c(C(=O)NS(=O)(=O)c3ccccn3)csc12 [compound 1830] | 8.06
9 | Cc1nc2cnc(N(C)C3CCN(C4CC(F)(F)C4)CC3)c(C#N)c2c(=O)n1CC#Cc1ccc(Cl)cc1-c1ccnc2c(C(=O)NS(=O)(=O)c3cccnc3)csc12 [compound 1831] | 5
10 | Cc1nc2cnc(N(C)C3CCN(C4CC(F)(F)C4)CC3)c(C#N)c2c(=O)n1CC#Cc1ccc(Cl)cc1-c1ccnc2c(C(=O)NS(=O)(=O)Cc3ccccn3)csc12 [compound 1832] | 20.5
11 | Cc1nc2cnc(N(C)C3CCN(C4CC(F)(F)C4)CC3)c(C#N)c2c(=O)n1CC#Cc1ccc(Cl)cc1-c1ccnc2c(C(=O)NS(=O)(=O)C3CC(F)(F)C3)csc12 [compound 1833] | 14.8
12 | CCN(c1ncc2nc(C)n(CC#Cc3ccc(Cl)cc3-c3ccnc4c(C(=O)NS(=O)(=O)c5cccnc5)csc34)c(=O)c2c1C#N)C1CCN(C2CC(F)(F)C2)CC1 [compound 1839] | 34.5
13 | CCN(c1ncc2nc(C)n(CC#Cc3ccc(Cl)cc3-c3ccnc4c(C(=O)NS(=O)(=O)c5ccccn5)csc34)c(=O)c2c1C#N)C1CCN(C2CC(F)(F)C2)CC1 [compound 1840] | 26.4
14 | Cc1nc2cnc(N(C)[C@H]3CC[C@H](N(C)CC(F)F)CC3)c(C#N)c2c(=O)n1CC#Cc1ccc(Cl)cc1-c1ccnc2c(C(=O)O)csc12 [compound 1895] | 12.7
15 | Cc1nc2cnc(N(C)[C@H]3CC[C@@H](N(C)CC(F)F)CC3)c(C#N)c2c(=O)n1CC#Cc1ccc(Cl)cc1-c1ccnc2c(C(=O)O)csc12 [compound 1896] | 12.2
16 | Cc1nc2cnc(N(C)[C@@H]3CC[C@H](N(C)CC(F)F)C3)c(C#N)c2c(=O)n1CC#Cc1ccc(Cl)cc1-c1ccnc2c(C(=O)O)csc12 [compound 1897] | 13.1
17 | N#Cc1cc(C(F)(F)F)cc2ncn(CCOc3ccc(Cl)cc3-c3ccnc4c(C(=O)O)csc34)c(=O)c12 [compound 1899] | 16.4
18 | COC(=O)c1csc2c(-c3cc(Cl)ccc3OCCn3c(C)nc4cc(C(F)(F)F)cc(C#N)c4c3=O)ccnc12 [compound 1900] | 2700

Row | SMILES | IC50 [nM]
19 | Cc1nc2cc(C(F)(F)F)cc(C#N)c2c(=O)n1CC#Cc1ccc(Cl)cc1-c1ccnc2c(C(=O)O)csc12 [compound 1901] | 35.7
20 | COC(=O)c1csc2c(-c3cc(Cl)ccc3OCCn3c(C)nc4cc(C(F)(F)F)c(Cl)c(C#N)c4c3=O)ccnc12 [compound 1905] | 881
21 | COC(=O)c1csc2c(-c3cc(Cl)ccc3OCCn3c(C)nc4cc(C(F)(F)F)c(CN(C)C)c(C#N)c4c3=O)ccnc12 [compound 1907] | 405
22 | Cc1cc(-c2cc(Cl)ccc2OCCn2c(C)nc3cc(C(F)(F)F)c(CC4CCN(C)CC4=O)c(C#N)c3c2=O)c2scc(C(=O)O)c2n1 (stereo not drawn) [compound 1908] | 5.17
23 | Cc1cc(-c2cc(Cl)ccc2OCCn2c(C)nc3cc(C(F)(F)F)c(-c4ccc(F)c(C)n4)c(C#N)c3c2=O)c2scc(C(=O)O)c2n1 [compound 1909] | 29.2
24 | Cc1ccc(-c2c(C(F)(F)F)cc3nc(C)n(CCOc4ccc(Cl)cc4-c4cc(C)nc5c(C(=O)O)csc45)c(=O)c3c2C#N)cn1 [compound 1910] | 47.4
25 | CCc1ncc(-c2c(C(F)(F)F)cc3nc(C)n(CCOc4ccc(Cl)cc4-c4cc(C)nc5c(C(=O)O)csc45)c(=O)c3c2C#N)cc1F [compound 1911] | 4.03
26 | Cc1nc2cc(C(F)(F)F)c(N3CCC4(CC3)CN(CC(F)F)C4)c(C#N)c2c(=O)n1CCOc1ccc(Cl)cc1-c1ccnc2c(C(=O)O)csc12 [compound 1912] | 5.96
27 | CCc1cc(-c2cc(Cl)ccc2OCCn2c(C)nc3cc(C(F)(F)F)c(N4CC5(C4)CN(C4CC4)C5)c(C#N)c3c2=O)c2scc(C(=O)NS(C)(=O)=O)c2n1 [compound 1932] | 8.4
28 | Cc1c(C(F)(F)F)c(N2CCN(C)CC2)c(C#N)c2c(=O)n(CCOc3ccc(Cl)cc3-c3ccnc4c(C(=O)O)csc34)c(C)nc12 [compound 1934] | 38.5
29 | Cc1nc2ccc(C(F)(F)F)c(C#N)c2c(=O)n1CCOc1ccc(Cl)cc1-c1ccnc2c(C(=O)O)csc12 [compound 1935] | 80.1
30 | Cc1nc2ccc(CN(C)C)c(C#N)c2c(=O)n1CCOc1ccc(Cl)cc1-c1ccnc2c(C(=O)O)csc12 [compound 1936] | 37.4
31 | N#Cc1cc(F)cc2nc(C(F)F)n(CCOc3ccc(Cl)cc3-c3ccnc4c(C(=O)O)csc34)c(=O)c12 [compound 1938] | 46.3
32 | Cc1nc2cc(C(F)F)cc(C#N)c2c(=O)n1CCOc1ccc(Cl)cc1-c1ccnc2c(C(=O)O)csc12 [compound 1939] | 24.5
33 | Cc1nc2cc(OC(F)F)cc(C#N)c2c(=O)n1CCOc1ccc(Cl)cc1-c1ccnc2c(C(=O)O)csc12 [compound 1940] | 34.9
34 | Cc1nc2c(Cl)ccc(C#N)c2c(=O)n1CCOc1ccc(Cl)cc1-c1ccnc2c(C(=O)O)csc12 [compound 1942] | 182
35 | Cc1nc2cc(S(=O)(=O)N(C)C)c(Cl)c(C#N)c2c(=O)n1CCOc1ccc(Cl)cc1-c1ccnc2c(C(=O)O)csc12 [compound 1948] | 35.6

The remaining lines, values ahead:

Row | IC50 [nM] | SMILES
36 | 12.9 | Cc1nc2cnc(N(C)C3CCN(C4CC(F)(F)C4)CC3)c(C#N)c2c(=O)n1CC#Cc1ccc(Cl)cc1-c1ccnc2c(C(=O)NS(=O)(=O)C3CCC3)csc12 [compound 1810]
37 | 12.7 | Cc1nc2cnc(N(C)C3CCN(C4CC(F)(F)C4)CC3)c(C#N)c2c(=O)n1CC#Cc1ccc(Cl)cc1-c1ccnc2c(C(=O)NS(=O)(=O)C3COC3)csc12 [compound 1811]
38 | 18.4 | Cc1nc2cnc(N(C)C3CCN(C4CC(F)(F)C4)CC3)c(C#N)c2c(=O)n1CC#Cc1ccc(Cl)cc1-c1ccnc2c(C(=O)NS(=O)(=O)CCC#N)csc12 [compound 1826]
39 | 14.8 | Cc1nc2cnc(N(C)C3CCN(C4CC(F)(F)C4)CC3)c(C#N)c2c(=O)n1CC#Cc1ccc(Cl)cc1-c1ccnc2c(C(=O)NS(=O)(=O)CC(C)(C)C#N)csc12 [compound 1827]
40 | 12.3 | CCN(c1ncc2nc(C)n(CC#Cc3ccc(Cl)cc3-c3ccnc4c(C(=O)NS(=O)(=O)c5ccncc5)csc34)c(=O)c2c1C#N)C1CCN(C2CC(F)(F)C2)CC1 [compound 1838]
41 | 61.3 | Cc1nc2cnc(/C=C/CN(C)CC(F)(F)F)c(C#N)c2c(=O)n1CCOc1ccc(Cl)cc1-c1ccnc2c(C(=O)O)csc12 [compound 1898]
42 | 29.8 | Cc1nc2cc(C(F)(F)F)cc(C#N)c2c(=O)n1CCOc1cc(F)c(Cl)cc1-c1ccnc2c(C(=O)O)csc12 [compound 1903]
43 | 36.9 | Cc1nc2cc(C(F)(F)F)c(Cl)c(C#N)c2c(=O)n1CCOc1ccc(Cl)cc1-c1ccnc2c(C(=O)O)csc12 [compound 1904]
44 | 22.9 | Cc1nc2cc(C(F)(F)F)c(N3CCC4(CC3)CN(CC(F)F)C4)c(C#N)c2c(=O)n1CCOc1ccc(Cl)cc1-c1ccnc2c(C(=O)NS(C)(=O)=O)csc12 [compound 1913]
45 | 4.81 | Cc1nc2cc(C(F)(F)F)c(N3CC4(C3)CN(C3CC3)C4)c(C#N)c2c(=O)n1CCOc1ccc(Cl)cc1-c1ccnc2c(C(=O)NS(C)(=O)=O)csc12 [compound 1930]
46 | 19.7 | CCc1cc(-c2cc(Cl)ccc2OCCn2c(C)nc3cc(C(F)(F)F)c(N4CC5(C4)CN(C4CC4)C5)c(C#N)c3c2=O)c2scc(C(=O)O)c2n1 [compound 1931]
47 | 34.6 | Cc1sc2c(-c3cc(Cl)ccc3OCCn3c(C)nc4c(C)c(C(F)(F)F)c(N5CCN(C)CC5)c(C#N)c4c3=O)ccnc2c1C(=O)O [compound 1933]
48 | 38.2 | Cc1nc2cc(F)cc(C#N)c2c(=O)n1CCOc1ccc(Cl)cc1-c1ccnc2c(C(=O)O)csc12 [compound 1937]
49 | 61.6 | N#Cc1ccc(F)c2nc(C(F)F)n(CCOc3ccc(Cl)cc3-c3ccnc4c(C(=O)O)csc34)c(=O)c12 [compound 1941]
50 | 42.4 | N#Cc1ccc(C#N)c2c(=O)n(CCOc3ccc(Cl)cc3-c3ccnc4c(C(=O)O)csc34)c(C(F)F)nc12 [compound 1943]
51 | 24.9 | Cc1nc2c(F)cc(C(F)F)c(C#N)c2c(=O)n1CCOc1ccc(Cl)cc1-c1ccnc2c(C(=O)O)csc12 [compound 1944]
52 | 44.9 | Cc1nc2c(F)cc(C(F)F)c(C#N)c2c(=O)n1CCOc1ccc(Cl)cc1-c1ccnc2c(C(=O)NS(C)(=O)=O)csc12 [compound 1945]
53 | 44.7 | Cc1nc2c(c(C#N)cc3ccccc32)c(=O)n1CCOc1ccc(Cl)cc1-c1ccnc2c(C(=O)O)csc12 [compound 1946]
54 | 29.7 | Cc1nc2cc(F)c(F)c(C#N)c2c(=O)n1CCOc1ccc(Cl)cc1-c1ccnc2c(C(=O)O)csc12 [compound 1947]
